Consider one compound from article PMC9364316, “Macromolecular and Solution Properties of the Recombinant Fusion Protein HUG” (Biomacromolecules, 2022).

The target of the assay is T1, HUG (HELP-UnaG) (Anguilla japonica, UniProt P0DM59).
T1 construct: entire UnaG (139 aa) fused to the C-terminus of the synthetic human elastin-like polypeptide HELP (536 aa, VAPGVG hexapeptide repeats); fusion of 675 aa, 60,406 Da; expressed in E. coli, purified by inverse phase transition
Put plainly: fluorescence titration (ex […] nm, em […] nm), nonlinear fit of […] binding model.

Each structure is given as a SMILES string. pKd: −log10 of the molar value.

For orientation: pKd means the negative decadic logarithm of the Kd, by convention in mol/L. High values mean a low Kd, low ones a high Kd.

T1 sequence (P0DM59 whole entry, the tested form may be a part): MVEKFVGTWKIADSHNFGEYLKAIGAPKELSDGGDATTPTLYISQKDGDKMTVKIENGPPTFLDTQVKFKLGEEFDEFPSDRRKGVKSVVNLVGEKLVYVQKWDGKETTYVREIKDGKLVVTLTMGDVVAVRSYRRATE

For `C=CC1=C(C)/C(=C/c2[nH]c(Cc3[nH]c(/C=C4\NC(=O)C(C)=C4C=C)c(C)c3CCC(=O)O)c(CCC(=O)O)c2C)NC1=O` [bilirubin], the pKd is 8.96.
